{"source": "patent US20260207569A1", "about": "“LPA1 ANTAGONISTS FOR TREATING INTERSTITIAL LUNG DISEASE” (Bristol-Myers Squibb Company, priority 2022, published 2026)", "key": {"participants with IPF": {"tested_on": "participants with IPF", "test": "Phase 2 IPF cohort efficacy: rate of change in ppFVC / FVC to Week 26", "assay_type": "in vivo, human", "description": "(§1) A total of 278 participants with IPF were randomized and 276 participants were treated as of […] analyses data cut-off (4 Aug. 2022). Male and female participants ≥40 years of age with IPF and percent predicted forced vital capacity (ppFVC) ≥40% and percent predicted DLCO (ppDLCO) ≥25%; diagnosed within 7 years of screening; having a centrally-read chest HRCT obtained at screening that was consistent with UIP or probable UIP, or having a lung biopsy consistent with UIP, were eligible to enter the study. The mean baseline ppFVC for all subjects was 76.5%. In the primary IPF cohort, participants were randomized (1:1:1) to receive 30 mg or 60 mg Compound A or placebo (PBO) twice daily for 26 weeks. Participants were stratified by standard of care (SoC) IPF therapy (pirfenidone versus nintedanib versus none) and region (Japan versus Rest of World) at randomization.\nThe primary objective of the study was to determine the rate of change in ppFVC from baseline to Week 26. The primary objective was evaluated with a two estimand framework to handle the intercurrent event of dose reduction to 10 mg BID or matching PBO when pre-specified low BP criteria is met. The primary estimand is adopted to estimate treatment effect when dose reduction is implemented. The supplementary estimand is adopted to estimate the effect of treatment without dose reduction.\nAnalysis Strategy: The primary estimand was to evaluate the efficacy of Compound A at 30 mg or 60 mg twice daily, compared to PBO in IPF participants who met the enrollment criteria, with or without use of SoC. The rate of decline in ppFVC (%) from baseline to Week 26 was compared using the difference between each dose and PBO as a population level summary regardless of dose reduction or treatment discontinuation for any reason (treatment policy strategy).\nAnalysis Strategy: The supplementary estimand for the primary objective is to evaluate the efficacy of Compound A at 30 mg or 60 mg twice daily without dose reduction, compared to the PBO in IPF subjects who met the enrollment criteria, with or without use of SoC. The rate of decline in ppFVC (%) from baseline to Week 26 has been compared using the difference between each dose and PBO as a population level summary regardless of treatment discontinuation for any reason (treatment policy strategy). In the event of dose reduction, data collected after dose reduction will not be considered relevant to the treatment effect of interest and therefore, will be treated as missing (while-on-treatment strategy)."}, "[1]": {"test": "Phase 2 IPF cohort safety: adverse events, low blood pressure criteria, dose reductions", "assay_type": "in vivo, human", "description": "as §1\nPatient experiences any of the following, confirmed by retest within 15 minutes: • Seated systolic blood pressure <85 mmHg • Seated diastolic blood pressure <55 mmHg • Orthostatic hypotension\nPatient experiences symptoms that, in the investigator's opinion, could be associated with a reduction in blood pressure and also experiences at least one of the following, confirmed by retest within 15 minutes: • Seated systolic blood pressure <100 mmHg or seated diastolic blood pressure <60 mmHg • Decrease of seated systolic blood pressure of ≥20 mmHg from the previous visit or decrease of seated diastolic blood pressure of ≥10 mmHg from the previous visit • Orthostatic hypotension • Orthostatic tachycardia"}, "[2]": {"conditions": "Active Total (30 mg and 60 mg groups)"}}, "note": "Entries after “also recorded” stand apart in the source; their conditions may differ.", "data": [{"smiles": "CCCN(C)C(=O)OCc1c(-c2ccc(O[C@H]3CCC[C@H](C(=O)O)C3)c(C)n2)nnn1C", "note": "[Compound A, (1S,3S)-3-((2-methyl-6-(1-methyl-5-(((methyl(propyl)carbamoyl)-oxy)methyl)-1H-1,2,3-triazol-4-yl)pyridin-3-yl)oxy)cyclohexane-1-carboxylic acid]", "values": [{"measurement": "Treatment differences in rates of change in ppFVC with and without background antifibrotic", "setting": "participants with IPF; IPF cohort", "value": "consistent between both groups"}, {"measurement": "Efficacy vs PBO", "setting": "participants with IPF; IPF, 30 mg BID, overall population", "value": "did not demonstrate efficacy compared to PBO"}, {"measurement": "Response by background SoC subgroup vs PBO", "setting": "participants with IPF; IPF, 60 mg BID, SoC (nintedanib or pirfenidone) and no SoC", "value": "favorable responses on the primary endpoint; also recorded: favorable efficacy; also recorded: favorable impact on FVC compared with PBO when used alone or on background therapy with nintedanib or pirfenidone"}, {"measurement": "Treatment response (rate of decline of ppFVC and FVC) vs PBO", "setting": "participants with IPF; IPF, 60 mg BID, Week 26, overall population", "value": "demonstrated favorable treatment responses versus PBO"}, {"measurement": "Slope difference (SE) in rate of decline in FVC, 60 mg - PBO", "setting": "participants with IPF; IPF, 60 mg BID, baseline to Week 26, supplementary estimand, Overall", "value": "61.4 (29.35) mL"}, {"measurement": "Relative treatment benefit (ppFVC decline) compared to PBO", "setting": "participants with IPF; IPF, 60 mg BID, primary estimand, not on background SoC", "value": 113, "unit": "%"}, {"measurement": "Relative treatment benefit (ppFVC decline) compared to PBO", "setting": "participants with IPF; IPF, 60 mg BID, primary estimand, on background SoC", "value": 39, "unit": "%"}, {"measurement": "Relative treatment benefit (ppFVC decline) compared to PBO", "setting": "participants with IPF; IPF, 60 mg BID, supplementary estimand, not on background SoC", "value": 123, "unit": "%"}, {"measurement": "Relative treatment benefit (ppFVC decline) compared to PBO", "setting": "participants with IPF; IPF, 60 mg BID, supplementary estimand, on background SoC", "value": 44, "unit": "%"}, {"measurement": "Dose reductions to 10 mg BID due to protocol-defined low BP criteria, %", "setting": "[1]; 30 mg BID", "value": 7.7, "unit": "%"}, {"measurement": "Dose reductions to 10 mg BID due to protocol-defined low BP criteria, %", "setting": "[1]; 60 mg BID", "value": 6.5, "unit": "%"}, {"measurement": "Risk of orthostatic intolerance, orthostatic hypotension or low BP criteria vs PBO", "setting": "[1]; 60 mg BID", "value": "lowest frequencies of orthostatic intolerance, orthostatic hypotension, or pre-specified symptomatic or asymptomatic low BP criteria; also recorded: not associated with any increased risk of orthostatic intolerance, orthostatic hypotension, orthostatic tachycardia, or symptomatic or asymptomatic low BP"}, {"measurement": "Subjects discontinuing study treatment due to a TEAE, %", "setting": "[1]; [2]", "value": "(8.2) %"}, {"measurement": "Subjects who died due to a TEAE, %", "setting": "[1]; [2]", "value": "(3.8) %"}, {"measurement": "Subjects who died, %", "setting": "[1]; [2]", "value": "(4.9) %"}, {"measurement": "Subjects with at least one AESI, %", "setting": "[1]; [2]", "value": "(14.7) %"}, {"measurement": "Subjects with at least one TEAE related to the study treatment, %", "setting": "[1]; [2]", "value": "(26.1) %"}, {"measurement": "Subjects with at least one TEAE, %", "setting": "[1]; [2]", "value": "(75.0) %"}, {"measurement": "Subjects with at least one TESAE, %", "setting": "[1]; [2]", "value": "(10.9) %"}]}]}
